Data: the NIST ThermoML archive (doi:10.1021/je049609w)

Key:
[1] = xn = mol fraction of the nth substance listed; conditions: 101 kPa, Liquid
[2] = refractive index (Na D-line) (dimensionless); xn = mol fraction of the nth substance listed; conditions: 101 kPa, Liquid

ClC=C(Cl)Cl [trichloroethene] + C1COCCO1
Conditions	mass density, 298.15 K [kg/m3]	mass density, 303.15 K [kg/m3]	mass density, 308.15 K [kg/m3]	refractive index, 298.15 K	refractive index, 303.15 K	refractive index, 308.15 K	speed of sound, 298.15 K [m/s]	viscosity, 298.15 K [mPa·s]	viscosity, 303.15 K [mPa·s]	viscosity, 308.15 K [mPa·s]
[1], x2 = 0	1455.4	1447	1438.5	–	–	–	1027	0.573	0.547	0.521
[1], x2 = 0.1006	1412.7	1404.6	1396.4	–	–	–	1059	0.635	0.602	0.569
[1], x2 = 0.201	1370.1	1362.2	1354.2	–	–	–	1091	0.697	0.658	0.618
[1], x2 = 0.2983	1327.9	1320.3	1312.8	–	–	–	1122	0.758	0.712	0.665
[1], x2 = 0.3995	1284.4	1277.2	1270	–	–	–	1152	0.821	0.768	0.714
[1], x2 = 0.507	1238.6	1231.5	1224.5	–	–	–	1187	0.888	0.827	0.767
[1], x2 = 0.5993	1199.3	1192.5	1185.7	–	–	–	1215	0.945	0.878	0.812
[1], x2 = 0.6969	1158.5	1152.1	1145.6	–	–	–	1246	1.006	0.933	0.859
[1], x2 = 0.802	1114	1107.7	1101.5	–	–	–	1276	1.072	0.991	0.911
[1], x2 = 0.9003	1072.1	1066.2	1060	–	–	–	1307	1.133	1.046	0.959
[2], x2 = 0	–	–	–	1.476	1.4729	1.4698	–	–	–	–
[2], x2 = 0.1006	–	–	–	1.4704	1.4673	1.4643	–	–	–	–
[2], x2 = 0.201	–	–	–	1.4648	1.4618	1.4587	–	–	–	–
[2], x2 = 0.2983	–	–	–	1.4592	1.4562	1.4532	–	–	–	–
[2], x2 = 0.3995	–	–	–	1.4536	1.4507	1.4477	–	–	–	–
[2], x2 = 0.507	–	–	–	1.4476	1.4446	1.4417	–	–	–	–
[2], x2 = 0.5993	–	–	–	1.4426	1.4396	1.4366	–	–	–	–
[2], x2 = 0.6969	–	–	–	1.4373	1.4344	1.4315	–	–	–	–
[2], x2 = 0.802	–	–	–	1.4314	1.4285	1.4256	–	–	–	–
[2], x2 = 0.9003	–	–	–	1.426	1.4231	1.4202	–	–	–	–

C1COCCO1 [1,4-dioxane] + CCCCO
Conditions	mass density, 298.15 K [kg/m3]	mass density, 303.15 K [kg/m3]	mass density, 308.15 K [kg/m3]	refractive index, 298.15 K	refractive index, 303.15 K	refractive index, 308.15 K	speed of sound, 298.15 K [m/s]	viscosity, 298.15 K [mPa·s]	viscosity, 303.15 K [mPa·s]	viscosity, 308.15 K [mPa·s]
[1], x1 = 0.1014	826.1	822.1	818.1	–	–	–	1249	2.15	1.926	1.703
[1], x1 = 0.2015	846.7	842.4	838.1	–	–	–	1260	1.757	1.602	1.447
[1], x1 = 0.2982	866.9	862.4	858	–	–	–	1270	1.489	1.347	1.204
[1], x1 = 0.3995	888.7	884	879.5	–	–	–	1281	1.327	1.196	1.066
[1], x1 = 0.4945	909.6	904.8	900.1	–	–	–	1291	1.241	1.13	1.03
[1], x1 = 0.5993	933.5	928.4	923.4	–	–	–	1301	1.177	1.081	0.985
[1], x1 = 0.7023	957.5	952.3	947.1	–	–	–	1310	1.153	1.063	0.972
[1], x1 = 0.802	981.1	975.8	970.4	–	–	–	1320	1.162	1.07	0.979
[1], x1 = 0.9017	1004.9	999.5	994	–	–	–	1332	1.17	1.078	0.986
[1], x1 = 1	1028.6	1022.9	1017.2	–	–	–	1345	1.196	1.095	1.008
[2], x1 = 0.1014	–	–	–	1.3999	1.3976	1.3952	–	–	–	–
[2], x1 = 0.2015	–	–	–	1.4016	1.3992	1.3968	–	–	–	–
[2], x1 = 0.2982	–	–	–	1.4032	1.4008	1.3984	–	–	–	–
[2], x1 = 0.3995	–	–	–	1.4052	1.4028	1.4003	–	–	–	–
[2], x1 = 0.4945	–	–	–	1.4071	1.4046	1.4022	–	–	–	–
[2], x1 = 0.5993	–	–	–	1.4095	1.4069	1.4044	–	–	–	–
[2], x1 = 0.7023	–	–	–	1.4119	1.4094	1.4068	–	–	–	–
[2], x1 = 0.802	–	–	–	1.4145	1.4118	1.4093	–	–	–	–
[2], x1 = 0.9017	–	–	–	1.4172	1.4145	1.4118	–	–	–	–
[2], x1 = 1	–	–	–	1.4203	1.4164	1.4145	–	–	–	–

C1COCCO1 [1,4-dioxane] + ClC=C(Cl)Cl
x1 = 1
Conditions	mass density, 298.15 K [kg/m3]	mass density, 303.15 K [kg/m3]	mass density, 308.15 K [kg/m3]	refractive index, 298.15 K	refractive index, 303.15 K	refractive index, 308.15 K	speed of sound, 298.15 K [m/s]	viscosity, 298.15 K [mPa·s]	viscosity, 303.15 K [mPa·s]	viscosity, 308.15 K [mPa·s]
[1]	1028.6	1022.9	1017.2	–	–	–	1345	1.196	1.102	1.008
[2]	–	–	–	1.4203	1.4164	1.4145	–	–	–	–
